Measurements: US11964943B2, “3,5-diarylidenyl-n-substituted-piperid-4-one-derived inhibitors of Stat3 pathway activity and uses thereof” (priority 2017, dated 2024)

Key:
Format in all cases: cell-based
[1] = test system: survivin, Bcl-2, Bcl-xL, MMP-9, cleaved PARP, cleaved caspase-3; assay: Immunoblotting of Stat3 downstream targets and apoptosis markers
Description: (§1) Whole cell lysates were prepared by incubation of harvested, trypsinised cells with CelLytic™ lysis buffer (Sigma-Aldrich) supplemented with 1× protease and 1× phosphatase inhibitors (Roche). Protein quantification was carried out using a protein assay kit (Bio-Rad). 40 μg of the lysates were denatured by heating for 5 min at 95° C. in sample buffer containing 100 mM Tris-Cl (pH 6.8), 4% SDS, 10% 2-mercaptoethanol, 20% glycerol, and 0.02% bromophenol blue. Precision Plus Protein Dual colour standards (Bio-Rad) were used as a molecular weight reference. For the detection of STAT3, pSTAT3, α/β tubulin, cleaved PARP, Bcl-2, Bcl-xL, FANCD2, BRCA1, EME1 and MUS81, proteins were separated on a NuPAGE 7% Tris-acetate gel (Life Technologies) and subsequently transferred to polyvinylidene difluoride membranes (Immobilon®-P transfer membrane; Millipore). […] Membranes were blocked for 1 h at ambient temperature in a blocking buffer containing 5% w/v Bovine Serum Albumin (BSA; Sigma-Aldrich) in 1×TBS, 0.1% Tween-20. All proteins were identified by incubation in a 1:1000 dilution of the respective polyclonal antibodies (Cell signaling) in blocking buffer overnight at 4° C. and subsequent incubation for 1 h with an anti-rabbit or anti-mouse secondary antibody (Cell signalling) at a dilution of 1:1000. The α/β tubulin (1:2000; Cell Signaling) and the anti-phospho-histone H2AX Antibody (1:500; Millipore) were used in the denoted dilutions. Antibody binding was visualized by enhanced chemiluminescence (Amersham) on autoradiography film (Kodak-X-Omat). Alternatively Images were captured by the GelDoc-It Imaging System Fusion Fx7 (Vilber Lourmat, Germany).
as §1, with “Immunoblotting. Whole” for “Whole”, “CelLytic™ M” for “CelLytic™”, “pSTAT3, a/0” for “pSTAT3, α/β”, “in 1×TBS” for “in 1×TBS,”, “(Cell signalling)” for “(Cell signaling)”

[2] = test system: A2780-cisplatin resistant spheroids; assay: CellTiter-Glo 3D cell viability assay, A2780-cisplatin resistant spheroids; settings: 96 h exposure, 3D CellTiter-Glo
Description: For cell spheroid formation, HCT116-oxaliplatin resistant cells, A2780-cisplatin resistant cells, and HT1080 cells were seeded in Corning® Spheroid opaque-walled 96 well Microplates (ultra-low attachment; Nuclon™ Sphera™, Thermofisher) at densities of 2000 cells/well in 100 μl of cell solution and allowed to grow for 4 days, before any manipulation.
At the end of drug incubation, both the plates and the CellTitre-Glo® reagent (previously thawn overnight in the fridge) were equilibrated at room temperature for at least 30 min. Subsequently, 100 μl of cell solution were carefully removed from each well, without disrupting the spheroid and equal volume of CellTitre-Glo® reagent was added. Cell lysis was performed by vigorously shaking the plate for 5 min. To stabilize the luminescent signal, the plate was incubated in the dark at RT for another 30 min before luminescence was recorded on a plate reader. The cell viability of treated samples was normalised to the untreated controls.
The cytotoxicity studies in spheroids were conducted using the CellTiter-Glo® 3D Cell viability assay (Promega) following the instructions of the manufacturer.

γ-H2AX = γ-H2AX immunofluorescence staining; settings: DU145, 1.2 μM 18 h then 60 μM cisplatin 1 h
Description: For Stat3, pStat3 staining, 2.5×10^4 cells/ml were plated on 13-mm glass cover slip (VWR) in 24 well plates, allowed to adhere and processed the next day. Cells were treated with IE-8 for 18 h, and subsequently washed in ice cold PBS and fixed with 2% paraformaldehyde PFA (Alfa Aesar) for 10 min at room temperature, followed by permeabilization with PBS containing 0.5% Triton X-100 for 10 min. Cells were blocked in PBS 5% BSA for 1 h at ambient temperature. Respective proteins were identified by incubation for 4 h with anti-Stat3 and anti-pStat3 rabbit polyclonal antibodies (1:1000, Cell signalling) or anti-phospho-Histone H2A.X mouse monoclonal (1:500; Millipore) diluted in a PBS 1% BSA buffer. Cells were incubated with a secondary fluorescent conjugated antibody Alexa Fluor 488 (1:500; Life Technologies) for 2 h at RT. Nuclei were stained using propidium iodide (2 μg/ml; Sigma-Aldrich) and mounted on glass slides with mounting medium (Dako).
To quantify γ-H2AX foci from images obtained using the protocol above, the program CellProfiler was utilized. Each cell nucleus was identified and the number of foci within computationally counted. The number of foci was taken as an average from the first 30 cells measured with a detection threshold of 0.3.

DU145 cells = assay: Live cell microscopy; settings: DU145, increasing concentration over 24 h
Description: 5×10^4 DU145 cells were seeded in 8-well chamber slides (Ibidi, Martinsried, Germany). After 24 h, cells were treated with the denoted concentration (μM) IE-8 and intracellular drug accumulation was imaged at 3 h intervals on a live cell microscope (Visitron Systems, Puchheim, Germany) using a 40× oil immersion DIC objective and VisiView® software.
LEDs were used for widefield DIC and fluorescence (436/20 nm excitation and 480/40 nm bandpass filter for (CFP) fluorescence illumination (Visitron Systems). Images were taken with a sCMOS 4.2MPxl digital camera.

[3] = A2780-cisplatin resistant cells

COc1cc(/C=C2\CN(c3ccccc3)C/C(=C\c3cc(OC)c(OC)c(OC)c3)C2=O)cc(OC)c1OC [IE-8, 3,5-Di(3,4,5-trimethoxybenzylidene)-1-phenylpiperidin-4-one]
induction of apoptosis (cleaved PARP, cleaved caspase 3, Annexin-V/PI) [1, 3]: induced apoptosis
inhibition of downstream Stat3 targets Bcl-xL and survivin [1, 3]: capable of inhibiting
downregulation of MMP-9 ([1]; A2780-cisplatin resistant cells, IL-6 stimulated): downregulates the matrix metalloproteinase MMP-9
induction of apoptosis (cleaved PARP) ([1]; DU145 and A549 cells, 18 h): induced cell death via apoptosis
downregulation of survivin and Bcl-2 ([1]; DU145 cells, 18 h): downregulated the transcription of key Stat3 target genes
IC50 [2]: 3.01 ± 0.41 µM
DNA-damage response to cisplatin (γ-H2Ax induction) (γ-H2AX): enhanced
cytoplasmic vacuolisation (DU145 cells): induced cytoplasmic vacuolisation
